We go through one compound from paper PMC3006138, “Fexinidazole – A New Oral Nitroimidazole Drug Candidate Entering Clinical Development for the Treatment of Sleeping Sickness” (PLoS Neglected Tropical Diseases, 2010).

One data set concerns T. b. gambiense 130R. Description: Acute infection mouse model. The note with it: 100 mg/kg×4 days po. Format: in vivo. The method, then:
(§1) Female NMRI mice were infected via intraperitoneal injection with bloodstream forms of T. b. rhodesiense STIB900 or T. b. gambiense 130R and treated with test drugs daily for 4 consecutive days, starting on day 3 or 7 after infection, respectively, or with bloodstream forms of T. b brucei GVR35 and treated daily from day 21 after infection for 5 days. Parasitemia was evaluated by tail blood examination and surviving, aparasitaemic mice at 60, 90, or 180 days, respectively, were considered cured.

The subject of data set [1] is T. b. rhodesiense STIB900. The data set is described as follows: Acute infection mouse model. Format: in vivo. On the procedure:
as §1

Data set [2] is described as follows: Hepatocyte intrinsic clearance and metabolite profile. Format: in vitro ADME, dog. To be noted: male, beagle, dog, cryopreserved hepatocytes, 1 µM. The method, then:
Fexinidazole was incubated with cryopreserved hepatocytes from male CD-1 mice, male Sprague Dawley rats, male beagle dogs, male cynomolgus monkeys, and from pooled white or African-American human donor samples (purchased commercially), at concentrations of 1 µM and 10 µM. […] The incubated samples were analyzed by LC-MS after extraction into acetonitrile.
A quality control analysis of fexinidazole was performed via 1H-NMR in DMSO and LC- […]
provided by the Swiss Tropical Institute (Basel, Switzerland).
Reagents and solvents were of analytical grade and obtained from Sigma-Aldrich (St. Louis, […]
Cryopreserved hepatocytes from the male CD1 mouse, lot CSI; male Sprague Dawley rat, lot LPL; male beagle dog, lot BWX; male cynomolgus monkey, lot EHH; and pooled human samples, lot MJI, were purchased from In Vitro Technologies Inc (Baltimore, Maryland, […]
5.4. In vitro Incubations
On the day of the experiment a 10 mM stock solution of fexinidazole in DMSO was prepared and, within 3 hours, aliquots of this freshly prepared solution, after suitable dilution, were added to the incubation matrix, to reach fexinidazole final concentrations of 1 and 10 µM. The final percentage of DMSO was 0.01% in the incubation samples for the […]
On the day of experiment, the cryopreserved hepatocytes were thawed following the detailed instructions provided by the supplier.
The number of viable cells was determined using a Trypan Blue exclusion method.
5.4.1. Intrinsic Clearance Study […]
µM with mouse, rat, dog, monkey and human hepatocytes (300000 cells/mL for the mouse and 1 million cells/mL for the other species) in a final incubation volume of 0.75 mL […]
Incubations were performed in duplicate in a 48-well plate under shaking. Sampling was performed using an automatic liquid handling system (Multiprobe II EX, Packard). At 0, 1, 5, 10, 15, 20, 30, 60 and 120 minutes, 50 µL aliquots of the incubates were taken, then 80 µL of ice-cold acetonitrile and 20 µL of 1 µM warfarin in acetonitrile (internal standard) were added, and samples centrifuged at 2000 rpm for 20 min. The supernatant was analyzed by LC-MS/MS. […]
the medium alone at t = 0 and 120 minutes.
For the determination of phase I and phase II activity of hepatocytes, 7-ethoxycoumarin (7-EC) 1 µM, and 7-hydroxycoumarin (7-HC) 30 µM were used as positive controls and incubated under the same conditions as fexinidazole. Aliquots of incubates were taken at 0, 10, 20, 30, 60 and 120 minutes and processed as fexinidazole samples.
5.4.2. Metabolite Profile Study
For metabolite profiling, fexinidazole was incubated at a concentration of 10 µM with mouse, rat, dog, monkey and human hepatocytes (300000 cells/mL for the mouse and 1 million cells/mL for the other species) in a final incubation volume of 2 mL Leibovitz L-15 […]
Aliquots of the incubation samples were taken at t = 0, 30 and 120 minutes; the metabolism was stopped by the addition of an equal volume of cold acetonitrile and the samples centrifuged at 1500 rpm for 20 min. The supernatant was stored at -20°C until analysis. Control incubations were performed with the compound in the medium alone […]
5.5. Analysis of Samples for Intrinsic Clearance Determination
The analysis of the samples for intrinsic clearance determination was performed by an LC-MS/MS method, using the following conditions:
HPLC Equipment and Conditions
HPLC system Agilent 1100 binary pump (Agilent, Palo Alto, USA)
Autosampler CTC Pal (Alfatech, San Jose, USA)
Analytical column Guard Column SB-C8 4.6 x 12.5 mm, 5 µm (Zorbax)
Column temperature ambient
Mobile phase A 10 mM ammonium formate pH 4.0: acetonitrile (95:5, v:v)
Mobile phase B 10 mM ammonium formate pH 4.0: acetonitrile (5:95, v:v) […]
Gradient conditions Step Total time (min) flow (µL/min) %A % B […]
MS Equipment and Conditions
Mass spectrometer API 4000 Triple Quadrupole (MDS-Sciex, Toronto, […]
Source Turbo Ion Spray (TIS)
Ion mode Positive for fexinidazole and 7-EC.
Negative for 7-HC, 7-HC sulphate and 7-HC glucuronide.

Data set [3] in a line: Preliminary embryo-foetal and early postnatal development study. Format: in vivo, rat. The note with it: pregnant rats. On the procedure: In the rat study, fexinidazole was administered orally by gavage once a day from day 6 to day 17 of gestation or from day 6 of gestation to day 7 of lactation to 10 mated rat Crl:CD (SD)IGS BR rats[…]/group at doses of 50, 200, or 800 mg/kg/day. A control group received the vehicle alone (5% Tween 80/0.5% methocel).

Another data set relates to rat liver cells. Description: Ex vivo unscheduled DNA synthesis. Format: in vivo. The method, then:
Groups of young male Sprague-Dawley rats received fexinidazole at doses of 500, 1000, or 2000 mg/kg orally, and the livers were sampled either 2–4 h or 12–14 h after administration. Hepatocyte suspensions were prepared and incubated in the presence of […] thymidine. Slides of fixed hepatocytes were coated in photographic emulsion and stored for 14 days at 4°C in the dark. The silver grains above the nuclei or cytoplasm (background) were counted, providing a measure of DNA uptake during DNA repair. The difference between these two counts indicated the extent of DNA repair (nuclear net grain count).

On the set-up of data set [4]: method as in ref 3 (report no. 0275-2007-R). To be noted: single 50 mg/kg po, ref 3 (report no. 0275-2007-R); cited from earlier work.
On the set-up of data set [5]: method as in study 0339-2007. The note with it: 7-day repeated toxicity study, top dose 2000 mg/kg, ref study 0339-2007; cited from earlier work.

Where only a bound is given, the exact number is not on record here.

In general, half-life refers to the time needed for the level to fall by half in the phase considered. What is called Cmax is the peak of the concentration-time curve. For `CSc1ccc(OCc2ncc([N+](=O)[O-])n2C)cc1` [Fexinidazole, 1-methyl-2-((p-(methylthio)phenoxy)methyl)-5-nitroimidazole], the Cured/infected with T. b. gambiense 130R was 3/3; in data set [1] (25 mg/kg×4 days po) it was 0/4; in data set [1] (50 mg/kg×4 days po) it was 1/4; in data set [1] (100 mg/kg×4 days po), 4/4. For the same compound, the Mean relapse time in the data set with T. b. gambiense 130R is listed as over 90 days; in data set [1] (25 mg/kg×4 days po), 12 days; in data set [1] (50 mg/kg×4 days po), over 27 days; in data set [1] (100 mg/kg×4 days po), over 60 days. The efficacy entry is listed as “effective in curing” in data set [1] (50 mg/kg twice a day for 4 days po, T. b. rhodesiense and T. b. gambiense acute models); “partially curative” in data set [1] (single high dose, acute model, data not shown). Moreover, in data set [2], the half-life at 1 µM came out at 1.1 min. In addition, the CLint scaled at 1 µM in data set [2] (read-out: CLint in vitro) was over 3000 mL/min/kg. For the same compound, the hepatocyte CLint at 1 µM in data set [2] (read-out: CLint in vitro) was 656 µL/min/1e6 cells. Besides, in data set [3], the “effects on embryo-foetal and early postnatal development” value is “no adverse effects on embryos/foetuses, parturition, and neonates”. Moreover, the “Net nuclear grain count (2–4 h)” value in the data set with rat liver cells (500 mg/kg po) is on record as 0.0; in the data set on rat liver cells (1000 mg/kg po) it was −0.1; with rat liver cells (2000 mg/kg po), −0.4. Also, the “Net nuclear grain count (12–14 h)” value in the data set with rat liver cells (500 mg/kg po) is 0.4; with rat liver cells (1000 mg/kg po) it was 0.5; in the data set with rat liver cells (2000 mg/kg po), 0.2. For the same compound, the UDS study result with rat liver cells (rat, in vivo) is “confirmed the lack of mammalian genotoxic activity”. In addition, in data set [4], the “AUC0-tlast” value was 416 ng⋅h/mL. Further, the Cmax in data set [4] was 154 ng/mL. Moreover, the tolerability result in data set [5] is on record as “well tolerated”.
